Measured values from patent US20100041632A1, “USES OF THE CARBOXY-AMIDO-TRIAZOLE COMPOUNDS AND SALTS THEREOF” (priority 2006, published 2010).

How the values were obtained:
Assay type in all cases: in vivo
Kunming mice [1] = assay: Radiant heat test (tail-flick)
Experimental: The radiant heat dolorimeter (Collumbus Instruments) is used in this model with the tail-flick mode and the exposure rate of 20. The latency periods (TFL) starting from the beginning of exposure to the tail-flick responses were recorded as the pain threshold. The exposure time lasted for 16 seconds.
Kunming mice (18-22 g, male) are tested for the basic pain threshold before the test with drug administration, and those with pain threshold longer than 16 seconds are excluded. The selected mice are divided into 4 groups with 15 animals per group.
Control group with dissolvent: 10 μl PEG400 was administered (ig) twice with the interval of 24 hours. The pain intensity test was carried out 8 hours after the second administration. 200 μl N.S. was injected (sc) 5 minutes before the test.
(§1) Morphine/PEG400 group: 10 μl PEG400 was administered (ig) twice with the interval of 24 hours. The pain intensity test was carried out 8 hours after the second administration. Morphine (2 mg/kg body weight) was injected (sc) 5 minutes before the test.
(§2) CAI/N.S. group: CAI (20 mg/kg body weight, 2 mg/ml) was administered (ig) twice with the interval of 24 hours. The pain intensity test was carried out 8 hours after the second administration. 200 μl N.S. was injected (sc) 5 minutes before the test.
The pain intensity test was carried out 8 hours after the second administration, morphine (2 mg/kg body weight) was injected (sc) 5 minutes before the test.
The pain threshold of each mouse was tested before and after morphine or N.S. injection. The values after drug administration minus those before drug administration were considered to be the changing index of pain threshold.

Wistar rats = assay: Adjuvant induced arthritis (AA) of rat, paw oedema
Experimental: Negative control (AA+NS): […] positive control (AA+Dex): dexamethasone, i.p., 0.067 mg/kg/day. Vehicle control (AA+PEG400): […] CAI (AA+CAI): 20 mg/ml CAI, ig, 0.1 ml/100 g/day (20 mg/kg/day). Combination (AA+CAI+Dex): dexamethasone, 0.067 mg/kg/day (i.p.) plus CAI 20 mg/kg/day (p.o.). Normal volumes of left and right hind paw were measured before adjuvant injection. […]

TNF-α = TNF-α levels in paw tissue and serum of adjuvant arthritis rat (ELISA); conditions: AA rats, day 29, ELISA
Experimental: (§3) Blood was collected from eve socket on day 29 and left in room temperature to allow coagulating. Then serum was separated by centrifugation at 3000 rpm for 10 min and kept in −20° C. After animals were sacrificed, the subcutaneous tissue of the right hind paw and that surrounding the tarsotibial joints was removed, broke into pieces, and placed in 5 ml normal saline (0.9%). The tissues were homogenized in a high speed homogenizer. Then the homogenate was centrifuged at 4° C. and 10,000 rpm for 15 min. The supernatants were collected and stored at −20° C. until further analysis.
(§4) IL-1β and TNF-α levels in paw tissue and serum were measured using specific rat ELISA kits according to the manufacturer's instructions.

Kunming mice [2] = assay: Croton oil-induced ear edema mouse model
Experimental: Male Kunming mice, weighted 18-22 g, were randomly divided to the following experiment groups, 20 mice/group:
Negative control: normal saline was injected (ig), 0.1 ml/10 g/day for 3 consecutive days.
Vehicle control: PEG400 was injected (ig), […] for 3 consecutive days.
Positive control: Dexamethasone (0.2 mg/ml) was injected (ip), 0.1 ml/10 g/day for 3 consecutive days.
Test group: CAI or its analogs (2 mg/ml, analogs are as described in example 5) was administered (ig), 0.1 ml/10 g/day for 3 consecutive days.
8 hours after the last administration, 20 μl of croton oil solution (2%) was applied to the right ear of each mouse. The left ear remained untreated as control. The animals were sacrificed 4 hours later, and a piece of tissue was punched from the same position of the treated and untreated ear. The tissues were weighed on a 0.1 mg balance. The difference in weight between the two pieces of tissue of each mouse was taken as a measure of swelling intensity.

IL-1β = IL-1β levels in paw tissue and serum of adjuvant arthritis rat (ELISA); conditions: AA rats, day 29, ELISA
Experimental: as §3, with “The adjuvant arthritis rat was prepared as described in example 8. Treatment was performed as described in example 8. Blood” for “Blood”
as §4

Kunming mice [3] = assay: Formalin test (analgesic effect)
Experimental: 320 Kunming mice (18-22 g, half male and half female) were divided into 4 groups randomly with 80 animals in each group.
Control group with dissolvent (PEG400/N.S.): 10 μl PEG400 was administered (ig) twice with the interval of 24 hours. The pain intensity test was carried out 8 hours after the second administration. 200 μl N.S. is injected (sc) 5 minutes before the test.
as §1, §2
The pain intensity test was carried out 8 hours after the second administration. Morphine (2 mg/kg body weight) was injected (sc) 5 minutes before the test.
5 minutes after the morphine or N.S. injection, 20 μl 2% formalin was injected (sc) into the subplantar space of the hind paw. The animals were placed immediately in a glass cylinder hanging on a holder, with a mirror placed below with 30° slope to observe the paw responses. The pain responses of the animals with injected paws were recorded; a pain ranking was recorded as follows: 3=the injected paw is licked, bitten, or shaken; 2=the injected paw is elevated and is not in contact with any other surface; 1=the injected paw has little or no weight on it; 0=the injected paw is not favored. The duration of each of the 4 behavioral categories was recorded. The observation lasted for 15 minutes. A pain intensity score was calculated by multiplying the amount of time spent in each category by its assigned category score and adding these products together.

Compound: NC(=O)c1nnn(Cc2cc(Cl)c(C(=O)c3ccc(Cl)cc3)c(Cl)c2)c1N [CAI, 5-amino-1-[3,5-dichloro-4-(4-chlorobenzoyl chloride)benzyl]-1H-1,2,3-triazole-4-carboxamide]
- Analgesic effect in radiant heat test (in words) (Kunming mice [1]; compared with the control group): neither have obvious analgesic effect alone
- Pain threshold change (seconds, mean ± std) (Kunming mice [1]; tail-flick latency after minus before drug, CAI 20 mg/kg ig twice, morphine 2 mg/kg sc): 2.56 ± 2.62 s
- Primary paw oedema (%), mean ± std (Wistar rats; 1 d, CAI 20 mg/kg/day ig, Dex 0.067 mg/kg/day i.p.): 116.2 ± 17.6 %
- Primary paw oedema (%), mean ± std (Wistar rats; 2 d): 131.9 ± 23.0 %
- Primary paw oedema (%), mean ± std (Wistar rats; 5 d): 122.4 ± 12.4 %
- Primary paw oedema (%), mean ± std (Wistar rats; 8 d): 121.6 ± 21.6 %
- Primary paw oedema (%), mean ± std (Wistar rats; 11 d): 129.3 ± 23.5 %
- Primary paw oedema (%), mean ± std (Wistar rats; 14 d): 112.0 ± 15.7 %
- Secondary paw oedema (%), mean ± std (Wistar rats; 14 d, right hind paw): 2.3 ± 1.0 %
- Primary paw oedema (%), mean ± std (Wistar rats; 17 d): 104.3 ± 20.7 %
- Secondary paw oedema (%), mean ± std (Wistar rats; 17 d): 3.1 ± 0.8%
- Primary paw oedema (%), mean ± std (Wistar rats; 20 d): 92.2 ± 16.0 %
- Secondary paw oedema (%), mean ± std (Wistar rats; 20 d): 8.8 ± 3.2 %
- Primary paw oedema (%), mean ± std (Wistar rats; 23 d): 92.4 ± 15.4 %
- Secondary paw oedema (%), mean ± std (Wistar rats; 23 d): 8.6 ± 2.3 %
- Primary paw oedema (%), mean ± std (Wistar rats; 26 d): 88.6 ± 13.4 %
- Secondary paw oedema (%), mean ± std (Wistar rats; 26 d): 8.6 ± 1.9 %
- Primary paw oedema (%), mean ± std (Wistar rats; 29 d): 86.9 ± 23.1 %
- Secondary paw oedema (%), mean ± std (Wistar rats; 29 d): 6.5 ± 2.7 %
- Effect on paw oedema of AA rats (in words) (Wistar rats; compared with control group, two-way ANOVA): inhibits primary and secondary paw oedema
- TNF-α levels in paw tissue and serum (in words) (TNF-α): significantly reduced
- Swelling intensity (mg) mean ± std (Kunming mice [2]; ear weight difference 4 hours after 2% croton oil, CAI/analogs 2 mg/ml ig, dexamethasone 0.2 mg/ml ip, 0.1 ml/10 g/day, 3 days): 7.8 ± 0.2 mg
- Anti-inflammatory effect in ear edema model (in words) (Kunming mice [2]; mouse, in vivo): obvious anti-inflammatory effects
- IL-1β levels in paw tissue and serum (in words) (IL-1β): significantly reduced
- Pain intensity score (mean ± std) (Kunming mice [3]; 2% formalin sc hind paw, 15 minutes observation, CAI 20 mg/kg ig twice, morphine 2 mg/kg sc): 1007 ± 255
- Analgesic effect in formalin test (in words) (Kunming mice [3]; pain scores compared with the control group): decrease significantly
